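Where inhibition never reached the appropriate level, the endpoint shown equals the highest concentration tested. Otherwise, values were interpolated linearly from a five-concentration, 48-hour dose response in 96-well plates. At the TGI there is no net growth.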
Tests used:
Assay in all cases: DTP human tumour cell line panel, 48 h
KM12 colon = system: KM12 colon
M19-MEL melanoma = system: M19-MEL melanoma
SK-MEL-28 melanoma = system: SK-MEL-28 melanoma
SNB-19 CNS = system: SNB-19 CNS
UACC-257 melanoma = system: UACC-257 melanoma
HL-60(TB) leukemia = system: HL-60(TB) leukemia
EKVX NSCLC = system: EKVX NSCLC
NCI-H522 lung = system: NCI-H522 lung
UO-31 renal = system: UO-31 renal
ACHN renal = system: ACHN renal
OVCAR-8 ovarian = system: OVCAR-8 ovarian
SW-620 colon = system: SW-620 colon
SN12C renal = system: SN12C renal
IGROV1 ovarian = system: IGROV1 ovarian
LXFL 529 NSCLC = system: LXFL 529 NSCLC
U251 CNS = system: U251 CNS
MALME-3M melanoma = system: MALME-3M melanoma
KM20L2 colon = system: KM20L2 colon
RPMI-8226 leukemia = system: RPMI-8226 leukemia
HCT-116 colon = system: HCT-116 colon
NCI-H23 lung = system: NCI-H23 lung
DMS 114 small cell lung = system: DMS 114 small cell lung
RXF 393 renal = system: RXF 393 renal
M14 melanoma = system: M14 melanoma
CCRF-CEM leukemia = system: CCRF-CEM leukemia
OVCAR-3 ovarian = system: OVCAR-3 ovarian
786-0 renal = system: 786-0 renal
LOX IMVI melanoma = system: LOX IMVI melanoma
MOLT-4 leukemia = system: MOLT-4 leukemia
HOP-92 NSCLC = system: HOP-92 NSCLC
SNB-75 CNS = system: SNB-75 CNS
HCT-15 colon = system: HCT-15 colon
DMS 273 small cell lung = system: DMS 273 small cell lung
COLO 205 colon = system: COLO 205 colon
SF-268 CNS = system: SF-268 CNS
SK-OV-3 ovarian = system: SK-OV-3 ovarian
SK-MEL-5 melanoma = system: SK-MEL-5 melanoma
SF-539 CNS = system: SF-539 CNS
UACC-62 melanoma = system: UACC-62 melanoma
DLD-1 colon = system: DLD-1 colon
A549 NSCLC = system: A549 NSCLC
A498 renal = system: A498 renal
OVCAR-4 ovarian = system: OVCAR-4 ovarian
CAKI-1 renal = system: CAKI-1 renal
HCC-2998 colon = system: HCC-2998 colon
NCI-H460 lung = system: NCI-H460 lung
HT29 colon = system: HT29 colon
K-562 leukemia = system: K-562 leukemia
SNB-78 CNS = system: SNB-78 CNS
SK-MEL-2 melanoma = system: SK-MEL-2 melanoma
OVCAR-5 ovarian = system: OVCAR-5 ovarian
TK-10 renal = system: TK-10 renal
HOP-62 NSCLC = system: HOP-62 NSCLC
NCI-H226 lung = system: NCI-H226 lung
SF-295 CNS = system: SF-295 CNS
HOP-18 NSCLC = system: HOP-18 NSCLC

With `C[N+](C)(C)CC(=O)N/N=C(\C(=O)Nc1ccc(Cl)cc1)C1C(=O)N(c2ccccc2)N=C1N` (stereo not drawn) as the compound, how does the TGI (KM12 colon) read?
The TGI was > 100 µM.

And the TGI (M19-MEL melanoma)?
The TGI was > 100 µM.

And the TGI (SK-MEL-28 melanoma)?
The TGI was > 100 µM.

What about the TGI (SNB-19 CNS) of the same compound?
The TGI was > 100 µM.

And the TGI (UACC-257 melanoma)?
Its TGI is > 100 µM.

What about the TGI (HL-60(TB) leukemia) of the same compound?
Its TGI is > 100 µM.

And the TGI (EKVX NSCLC)?
Its TGI is > 100 µM.

And the TGI (NCI-H522 lung)?
The TGI was > 100 µM.

And the TGI (UO-31 renal)?
The TGI was > 100 µM.

And the TGI (ACHN renal)?
Its TGI is > 100 µM.

And the TGI (OVCAR-8 ovarian)?
Its TGI is > 100 µM.

And the TGI (SW-620 colon)?
Its TGI is > 100 µM.

What about the TGI (SN12C renal) of the same compound?
Its TGI is > 100 µM.

And the TGI (IGROV1 ovarian)?
The TGI was > 100 µM.

What about the TGI (LXFL 529 NSCLC) of the same compound?
Its TGI is > 100 µM.

What about the TGI (U251 CNS) of the same compound?
Its TGI is > 100 µM.

What about the TGI (MALME-3M melanoma) of the same compound?
The TGI was > 100 µM.

And the TGI (KM20L2 colon)?
The TGI was > 100 µM.

What about the TGI (RPMI-8226 leukemia) of the same compound?
Its TGI is > 100 µM.

What about the TGI (HCT-116 colon) of the same compound?
The TGI was > 100 µM.

What about the TGI (NCI-H23 lung) of the same compound?
The TGI was > 100 µM.

And the TGI (DMS 114 small cell lung)?
The TGI was > 100 µM.

What about the TGI (RXF 393 renal) of the same compound?
Its TGI is > 100 µM.

What about the TGI (M14 melanoma) of the same compound?
Its TGI is > 100 µM.

What about the TGI (CCRF-CEM leukemia) of the same compound?
The TGI was > 100 µM.

What about the TGI (OVCAR-3 ovarian) of the same compound?
The TGI was > 100 µM.

And the TGI (786-0 renal)?
The TGI was > 100 µM.

And the TGI (LOX IMVI melanoma)?
The TGI was > 100 µM.

What about the TGI (MOLT-4 leukemia) of the same compound?
Its TGI is > 100 µM.

And the TGI (HOP-92 NSCLC)?
The TGI was > 100 µM.

And the TGI (SNB-75 CNS)?
The TGI was > 100 µM.

And the TGI (HCT-15 colon)?
Its TGI is > 100 µM.

What about the TGI (DMS 273 small cell lung) of the same compound?
Its TGI is > 100 µM.

And the TGI (COLO 205 colon)?
The TGI was > 100 µM.

And the TGI (SF-268 CNS)?
The TGI was > 100 µM.

What about the TGI (SK-OV-3 ovarian) of the same compound?
The TGI was > 100 µM.

And the TGI (SK-MEL-5 melanoma)?
The TGI was > 100 µM.

And the TGI (SF-539 CNS)?
Its TGI is > 100 µM.

What about the TGI (UACC-62 melanoma) of the same compound?
Its TGI is > 100 µM.

What about the TGI (DLD-1 colon) of the same compound?
Its TGI is > 100 µM.

And the TGI (A549 NSCLC)?
The TGI was > 100 µM.

And the TGI (A498 renal)?
Its TGI is > 100 µM.

And the TGI (OVCAR-4 ovarian)?
Its TGI is > 100 µM.

And the TGI (CAKI-1 renal)?
The TGI was > 100 µM.

And the TGI (HCC-2998 colon)?
The TGI was > 100 µM.

What about the TGI (NCI-H460 lung) of the same compound?
Its TGI is > 100 µM.

And the TGI (HT29 colon)?
The TGI was > 100 µM.

And the TGI (K-562 leukemia)?
The TGI was > 100 µM.

And the TGI (SNB-78 CNS)?
Its TGI is > 100 µM.

And the TGI (SK-MEL-2 melanoma)?
The TGI was > 100 µM.

What about the TGI (OVCAR-5 ovarian) of the same compound?
Its TGI is > 100 µM.

And the TGI (TK-10 renal)?
Its TGI is > 100 µM.

What about the TGI (HOP-62 NSCLC) of the same compound?
The TGI was > 100 µM.

How did the TGI (KM12 colon) turn out when `Cc1cccc2ns[s+]c12` was run?
The TGI was > 100 µM.

And the TGI (NCI-H226 lung)?
The TGI was > 100 µM.

And the TGI (SK-MEL-28 melanoma)?
Its TGI is > 100 µM.

What about the TGI (SNB-19 CNS) of the same compound?
The TGI was > 100 µM.

What about the TGI (UACC-257 melanoma) of the same compound?
The TGI was > 100 µM.

And the TGI (HL-60(TB) leukemia)?
The TGI was > 100 µM.

And the TGI (EKVX NSCLC)?
The TGI was > 100 µM.

What about the TGI (UO-31 renal) of the same compound?
Its TGI is > 100 µM.

What about the TGI (ACHN renal) of the same compound?
Its TGI is > 100 µM.

And the TGI (OVCAR-8 ovarian)?
Its TGI is > 100 µM.

What about the TGI (SW-620 colon) of the same compound?
The TGI was 32.7 µM.

What about the TGI (SN12C renal) of the same compound?
The TGI was > 100 µM.

And the TGI (IGROV1 ovarian)?
The TGI was > 100 µM.

And the TGI (LXFL 529 NSCLC)?
The TGI was > 100 µM.

And the TGI (U251 CNS)?
The TGI was > 100 µM.

What about the TGI (SF-295 CNS) of the same compound?
The TGI was > 100 µM.

What about the TGI (MALME-3M melanoma) of the same compound?
Its TGI is > 100 µM.

What about the TGI (KM20L2 colon) of the same compound?
The TGI was > 100 µM.

And the TGI (RPMI-8226 leukemia)?
Its TGI is > 100 µM.

And the TGI (HCT-116 colon)?
Its TGI is 37.7 µM.

And the TGI (NCI-H23 lung)?
The TGI was > 100 µM.

What about the TGI (DMS 114 small cell lung) of the same compound?
The TGI was 58.1 µM.

And the TGI (M14 melanoma)?
The TGI was > 100 µM.

And the TGI (CCRF-CEM leukemia)?
The TGI was > 100 µM.

What about the TGI (OVCAR-3 ovarian) of the same compound?
The TGI was > 100 µM.

And the TGI (MOLT-4 leukemia)?
The TGI was > 100 µM.

What about the TGI (HOP-92 NSCLC) of the same compound?
Its TGI is > 100 µM.

And the TGI (SNB-75 CNS)?
The TGI was > 100 µM.

And the TGI (HCT-15 colon)?
Its TGI is 39.3 µM.

And the TGI (DMS 273 small cell lung)?
Its TGI is > 100 µM.

And the TGI (COLO 205 colon)?
The TGI was > 100 µM.

What about the TGI (SF-268 CNS) of the same compound?
Its TGI is > 100 µM.

And the TGI (SK-OV-3 ovarian)?
Its TGI is > 100 µM.

And the TGI (SK-MEL-5 melanoma)?
The TGI was > 100 µM.

And the TGI (SF-539 CNS)?
Its TGI is > 100 µM.

What about the TGI (UACC-62 melanoma) of the same compound?
The TGI was > 100 µM.

What about the TGI (DLD-1 colon) of the same compound?
Its TGI is > 100 µM.

What about the TGI (A549 NSCLC) of the same compound?
The TGI was > 100 µM.

What about the TGI (HOP-18 NSCLC) of the same compound?
The TGI was > 100 µM.

What about the TGI (A498 renal) of the same compound?
The TGI was > 100 µM.

What about the TGI (OVCAR-4 ovarian) of the same compound?
Its TGI is > 100 µM.

And the TGI (CAKI-1 renal)?
The TGI was > 100 µM.

What about the TGI (HCC-2998 colon) of the same compound?
Its TGI is > 100 µM.

What about the TGI (NCI-H460 lung) of the same compound?
The TGI was > 100 µM.

What about the TGI (HT29 colon) of the same compound?
The TGI was > 100 µM.

What about the TGI (K-562 leukemia) of the same compound?
Its TGI is 81.4 µM.

What about the TGI (SNB-78 CNS) of the same compound?
Its TGI is > 100 µM.

And the TGI (OVCAR-5 ovarian)?
The TGI was > 100 µM.

And the TGI (TK-10 renal)?
Its TGI is > 100 µM.

What about the TGI (HOP-62 NSCLC) of the same compound?
Its TGI is > 100 µM.

Source: PubChem BioAssay (NCI)
